Data on one molecule can be found in patent US20080000489A1, “Method and preparation for binding aldehydes in saliva” (BIOHIT OYJ, priority 2000, published 2008).

The assay in a line: Salivary acetaldehyde in smokers sucking blinded L-cysteine tablets during cigarette smoking, gas chromatography. Format: in vivo, human. Conditions: for mean salivary acetaldehyde concentration immediately after smoking: five smokers, placebo 191.2±48.5 μM. Here is the method:
Five smokers (age 29±2.8) participated in the study, in which […] were smoked (wash-out periods between). During every cigarette smoking (in 5 min time) volunteers sucked blinded tablets containing placebo, 1.25 mg, 2.5 mg, 5 mg, 10 mg or 20 mg L-cysteine. Acetaldehyde was analysed from salivary samples gas chromatographically at 0, 5, 10, 20 min from the beginning of smoking.
The mean salivary acetaldehyde concentrations immediately after smoking were 191.2±48.5 μM, 0 μM, 0 μM, 0 μM with placebo, 5 mg, 10 mg and 20 mg L-cysteine tablets, respectively.

As to `N[C@@H](CS)C(=O)O` [L-cysteine], the “amount of acetaldehyde compared to placebo” value (1.25 mg L-cysteine tablet) is listed as “about to third compared to placebo”. Also, the “mean salivary acetaldehyde concentration immediately after smoking” value worked out at 0 µM (5 mg L-cysteine tablet sucked during 5 min smoking), 0 µM (10 mg L-cysteine tablet sucked during 5 min smoking) and 0 µM (20 mg L-cysteine tablet sucked during 5 min smoking). Further, for the setting “5 mg of L-cysteine administered by melting-tablet”, the “carcinogenic acetaldehyde in the saliva during smoking” value is “totally inactivates”. The “tobacco-originated acetaldehyde from the saliva” value (L-cysteine tablets 5 mg, 10 and 20 mg, FIG. 4) is “totally eradicated”.
